From the supplement of paper PMC10307832

How the values were obtained:
Test in all cases: relative viability (nuclei count vs DMSO), 5 days (fraction); higher = more cells survive
Selisistat + Phenformin = compound: C1CC(C2=C(C1)C3=C(N2)C=CC(=C3)Cl)C(=O)N [Selisistat] + N=C(N)NC(=N)NCCc1ccccc1 [Phenformin] (partner 250 µM)
Summary of the method: (§1)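 Lung cancer cell lines in 1536-well plates were dosed by pin tool the day after seeding, either with one drug alone or with a fixed anchor-drug dose plus five library-drug doses (not always all listed) in √10 steps. After 5 days, cells were fixed and their nuclei stained in one step (final 0.05% Triton X-100, 1% formaldehyde, 1 ug/ml Hoechst), then counted on 4× images. Relative viability is the nuclei count in treated wells divided by that in vehicle wells. Values are medians of duplicate plates.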

Serdemetan + Vorinostat = compound: c1ccc2c(CCNc3ccc(Nc4ccncc4)cc3)c[nH]c2c1 [Serdemetan] + O=C(CCCCCCC(=O)Nc1ccccc1)NO [Vorinostat] (partner 1 µM)
Summary of the method: as §1

Serdemetan + Trametinib = compound: c1ccc2c(CCNc3ccc(Nc4ccncc4)cc3)c[nH]c2c1 [Serdemetan] + CC(=O)Nc1cccc(-n2c(=O)n(C3CC3)c(=O)c3c(Nc4ccc(I)cc4F)n(C)c(=O)c(C)c32)c1 [Trametinib] (partner 0.02 µM)
Summary of the method: as §1

Serdemetan + Pictilisib = compound: c1ccc2c(CCNc3ccc(Nc4ccncc4)cc3)c[nH]c2c1 [Serdemetan] + CS(=O)(=O)N1CCN(Cc2cc3nc(-c4cccc5[nH]ncc45)nc(N4CCOCC4)c3s2)CC1 [Pictilisib] (partner 1 µM)
Summary of the method: as §1

HCC-827
relative viability (Selisistat + Phenformin; first compound 0.4 µM): 0.448
relative viability (Selisistat + Phenformin; first compound 1.265 µM): 0.399
relative viability (Selisistat + Phenformin; first compound 4 µM): 0.428
relative viability (Selisistat + Phenformin; first compound 12.65 µM): 0.395
relative viability (Selisistat + Phenformin; first compound 40 µM): 0.432
relative viability (Serdemetan + Vorinostat; first compound 0.04 µM): 0.827
relative viability (Serdemetan + Vorinostat; first compound 0.1265 µM): 0.466
relative viability (Serdemetan + Vorinostat; first compound 1.265 µM): 0.597
relative viability (Serdemetan + Vorinostat; first compound 4 µM): 0.449
relative viability (Serdemetan + Trametinib; first compound 0.04 µM): 0.543
relative viability (Serdemetan + Trametinib; first compound 0.1265 µM): 0.603
relative viability (Serdemetan + Trametinib; first compound 1.265 µM): 0.359
relative viability (Serdemetan + Trametinib; first compound 4 µM): 0.318
relative viability (Serdemetan + Pictilisib; first compound 0.04 µM): 0.921
relative viability (Serdemetan + Pictilisib; first compound 0.1265 µM): 0.712
relative viability (Serdemetan + Pictilisib; first compound 1.265 µM): 0.575
relative viability (Serdemetan + Pictilisib; first compound 4 µM): 0.824

HOP-62
relative viability (Selisistat + Phenformin; first compound 0.4 µM): 0.663
relative viability (Selisistat + Phenformin; first compound 1.265 µM): 0.619
relative viability (Selisistat + Phenformin; first compound 4 µM): 0.777
relative viability (Selisistat + Phenformin; first compound 12.65 µM): 0.64
relative viability (Selisistat + Phenformin; first compound 40 µM): 0.676
relative viability (Serdemetan + Vorinostat; first compound 0.04 µM): 0.702
relative viability (Serdemetan + Vorinostat; first compound 0.1265 µM): 0.713
relative viability (Serdemetan + Vorinostat; first compound 0.4 µM): 0.881
relative viability (Serdemetan + Vorinostat; first compound 1.265 µM): 0.36
relative viability (Serdemetan + Vorinostat; first compound 4 µM): 0.406
relative viability (Serdemetan + Trametinib; first compound 0.04 µM): 0.353
relative viability (Serdemetan + Trametinib; first compound 0.1265 µM): 0.319
relative viability (Serdemetan + Trametinib; first compound 0.4 µM): 0.343
relative viability (Serdemetan + Trametinib; first compound 1.265 µM): 0.314
relative viability (Serdemetan + Trametinib; first compound 4 µM): 0.28
relative viability (Serdemetan + Pictilisib; first compound 0.04 µM): 0.821
relative viability (Serdemetan + Pictilisib; first compound 0.1265 µM): 0.798
relative viability (Serdemetan + Pictilisib; first compound 0.4 µM): 0.782
relative viability (Serdemetan + Pictilisib; first compound 1.265 µM): 0.604
relative viability (Serdemetan + Pictilisib; first compound 4 µM): 0.657

LC-2-ad
relative viability (Selisistat + Phenformin; first compound 0.4 µM): 0.625
relative viability (Selisistat + Phenformin; first compound 4 µM): 0.437
relative viability (Selisistat + Phenformin; first compound 12.65 µM): 0.582
relative viability (Selisistat + Phenformin; first compound 40 µM): 0.632
relative viability (Serdemetan + Vorinostat; first compound 0.04 µM): 0.71
relative viability (Serdemetan + Vorinostat; first compound 0.1265 µM): 0.683
relative viability (Serdemetan + Vorinostat; first compound 0.4 µM): 0.673
relative viability (Serdemetan + Vorinostat; first compound 1.265 µM): 0.646
relative viability (Serdemetan + Vorinostat; first compound 4 µM): 0.638
relative viability (Serdemetan + Trametinib; first compound 0.04 µM): 0.86
relative viability (Serdemetan + Trametinib; first compound 0.1265 µM): 0.909
relative viability (Serdemetan + Trametinib; first compound 0.4 µM): 0.884
relative viability (Serdemetan + Trametinib; first compound 1.265 µM): 0.86
relative viability (Serdemetan + Trametinib; first compound 4 µM): 0.705
relative viability (Serdemetan + Pictilisib; first compound 0.04 µM): 0.42
relative viability (Serdemetan + Pictilisib; first compound 0.1265 µM): 0.445
relative viability (Serdemetan + Pictilisib; first compound 0.4 µM): 0.431
relative viability (Serdemetan + Pictilisib; first compound 4 µM): 0.417

LCLC-97TM1
relative viability (Selisistat + Phenformin; first compound 0.4 µM): 0.426
relative viability (Selisistat + Phenformin; first compound 1.265 µM): 0.409
relative viability (Selisistat + Phenformin; first compound 12.65 µM): 0.362
relative viability (Selisistat + Phenformin; first compound 40 µM): 0.461
relative viability (Serdemetan + Vorinostat; first compound 0.04 µM): 0.803
relative viability (Serdemetan + Vorinostat; first compound 0.1265 µM): 0.713
relative viability (Serdemetan + Vorinostat; first compound 0.4 µM): 0.667
relative viability (Serdemetan + Vorinostat; first compound 1.265 µM): 0.433
relative viability (Serdemetan + Vorinostat; first compound 4 µM): 0.398
relative viability (Serdemetan + Trametinib; first compound 0.04 µM): 0.204
relative viability (Serdemetan + Trametinib; first compound 0.1265 µM): 0.193
relative viability (Serdemetan + Trametinib; first compound 0.4 µM): 0.177
relative viability (Serdemetan + Trametinib; first compound 1.265 µM): 0.167
relative viability (Serdemetan + Trametinib; first compound 4 µM): 0.171
relative viability (Serdemetan + Pictilisib; first compound 0.04 µM): 0.214
relative viability (Serdemetan + Pictilisib; first compound 0.1265 µM): 0.22
relative viability (Serdemetan + Pictilisib; first compound 0.4 µM): 0.183
relative viability (Serdemetan + Pictilisib; first compound 1.265 µM): 0.143
relative viability (Serdemetan + Pictilisib; first compound 4 µM): 0.124

LCLC-103H
relative viability (Selisistat + Phenformin; first compound 0.4 µM): 0.339
relative viability (Selisistat + Phenformin; first compound 1.265 µM): 0.338
relative viability (Selisistat + Phenformin; first compound 4 µM): 0.334
relative viability (Selisistat + Phenformin; first compound 12.65 µM): 0.351
relative viability (Selisistat + Phenformin; first compound 40 µM): 0.355
relative viability (Serdemetan + Vorinostat; first compound 0.04 µM): 0.759
relative viability (Serdemetan + Vorinostat; first compound 0.1265 µM): 0.852
relative viability (Serdemetan + Vorinostat; first compound 0.4 µM): 0.773
relative viability (Serdemetan + Vorinostat; first compound 1.265 µM): 0.75
relative viability (Serdemetan + Vorinostat; first compound 4 µM): 0.779
relative viability (Serdemetan + Trametinib; first compound 0.04 µM): 0.686
relative viability (Serdemetan + Trametinib; first compound 0.1265 µM): 0.671
relative viability (Serdemetan + Trametinib; first compound 0.4 µM): 0.684
relative viability (Serdemetan + Trametinib; first compound 1.265 µM): 0.538
relative viability (Serdemetan + Trametinib; first compound 4 µM): 0.638
relative viability (Serdemetan + Pictilisib; first compound 0.04 µM): 0.629
relative viability (Serdemetan + Pictilisib; first compound 0.1265 µM): 0.665
relative viability (Serdemetan + Pictilisib; first compound 0.4 µM): 0.619
relative viability (Serdemetan + Pictilisib; first compound 1.265 µM): 0.594
relative viability (Serdemetan + Pictilisib; first compound 4 µM): 0.611

LK-2
relative viability (Selisistat + Phenformin; first compound 0.4 µM): 0.577
relative viability (Selisistat + Phenformin; first compound 1.265 µM): 0.373
relative viability (Selisistat + Phenformin; first compound 4 µM): 0.385
relative viability (Selisistat + Phenformin; first compound 12.65 µM): 0.382
relative viability (Selisistat + Phenformin; first compound 40 µM): 0.387
relative viability (Serdemetan + Vorinostat; first compound 0.04 µM): 0.394
relative viability (Serdemetan + Vorinostat; first compound 0.1265 µM): 0.371
relative viability (Serdemetan + Vorinostat; first compound 0.4 µM): 0.372
relative viability (Serdemetan + Vorinostat; first compound 1.265 µM): 0.221
relative viability (Serdemetan + Vorinostat; first compound 4 µM): 0.461
relative viability (Serdemetan + Trametinib; first compound 0.04 µM): 0.697
relative viability (Serdemetan + Trametinib; first compound 0.1265 µM): 0.79
relative viability (Serdemetan + Trametinib; first compound 0.4 µM): 0.809
relative viability (Serdemetan + Trametinib; first compound 1.265 µM): 0.752
relative viability (Serdemetan + Trametinib; first compound 4 µM): 0.757
relative viability (Serdemetan + Pictilisib; first compound 0.04 µM): 0.479
relative viability (Serdemetan + Pictilisib; first compound 0.1265 µM): 0.578
relative viability (Serdemetan + Pictilisib; first compound 0.4 µM): 0.687
relative viability (Serdemetan + Pictilisib; first compound 1.265 µM): 0.362
relative viability (Serdemetan + Pictilisib; first compound 4 µM): 0.301

LOU-NH91
relative viability (Selisistat + Phenformin; first compound 0.4 µM): 0.822
relative viability (Selisistat + Phenformin; first compound 1.265 µM): 0.691
relative viability (Selisistat + Phenformin; first compound 4 µM): 0.627
relative viability (Selisistat + Phenformin; first compound 12.65 µM): 0.71
relative viability (Selisistat + Phenformin; first compound 40 µM): 0.728
relative viability (Serdemetan + Vorinostat; first compound 0.04 µM): 0.954
relative viability (Serdemetan + Vorinostat; first compound 0.1265 µM): 0.954
relative viability (Serdemetan + Vorinostat; first compound 4 µM): 0.935
relative viability (Serdemetan + Trametinib; first compound 0.04 µM): 0.782
relative viability (Serdemetan + Trametinib; first compound 0.1265 µM): 0.798
relative viability (Serdemetan + Trametinib; first compound 4 µM): 0.839
relative viability (Serdemetan + Pictilisib; first compound 0.04 µM): 0.519
relative viability (Serdemetan + Pictilisib; first compound 0.1265 µM): 0.484
relative viability (Serdemetan + Pictilisib; first compound 1.265 µM): 0.433
relative viability (Serdemetan + Pictilisib; first compound 4 µM): 0.496

LU99A
relative viability (Selisistat + Phenformin; first compound 0.4 µM): 0.897
relative viability (Selisistat + Phenformin; first compound 1.265 µM): 0.956
relative viability (Selisistat + Phenformin; first compound 4 µM): 0.956
relative viability (Selisistat + Phenformin; first compound 12.65 µM): 0.806
relative viability (Selisistat + Phenformin; first compound 40 µM): 0.832
relative viability (Serdemetan + Vorinostat; first compound 0.04 µM): 0.535
relative viability (Serdemetan + Vorinostat; first compound 0.1265 µM): 0.459
relative viability (Serdemetan + Vorinostat; first compound 0.4 µM): 0.379
relative viability (Serdemetan + Vorinostat; first compound 1.265 µM): 0.211
relative viability (Serdemetan + Vorinostat; first compound 4 µM): 0.249
relative viability (Serdemetan + Trametinib; first compound 0.04 µM): 0.574
relative viability (Serdemetan + Trametinib; first compound 0.1265 µM): 0.453
relative viability (Serdemetan + Trametinib; first compound 0.4 µM): 0.483
relative viability (Serdemetan + Trametinib; first compound 1.265 µM): 0.277
relative viability (Serdemetan + Trametinib; first compound 4 µM): 0.224
relative viability (Serdemetan + Pictilisib; first compound 0.04 µM): 0.336
relative viability (Serdemetan + Pictilisib; first compound 0.1265 µM): 0.33
relative viability (Serdemetan + Pictilisib; first compound 0.4 µM): 0.338
relative viability (Serdemetan + Pictilisib; first compound 1.265 µM): 0.2
relative viability (Serdemetan + Pictilisib; first compound 4 µM): 0.218

LXF-289
relative viability (Selisistat + Phenformin; first compound 0.4 µM): 0.503
relative viability (Selisistat + Phenformin; first compound 1.265 µM): 0.517
relative viability (Selisistat + Phenformin; first compound 4 µM): 0.475
relative viability (Selisistat + Phenformin; first compound 12.65 µM): 0.499
relative viability (Selisistat + Phenformin; first compound 40 µM): 0.538
relative viability (Serdemetan + Vorinostat; first compound 0.04 µM): 0.754
relative viability (Serdemetan + Vorinostat; first compound 0.1265 µM): 0.77
relative viability (Serdemetan + Vorinostat; first compound 0.4 µM): 0.718
relative viability (Serdemetan + Vorinostat; first compound 1.265 µM): 0.656
relative viability (Serdemetan + Vorinostat; first compound 4 µM): 0.646
relative viability (Serdemetan + Trametinib; first compound 0.04 µM): 0.638
relative viability (Serdemetan + Trametinib; first compound 0.1265 µM): 0.624
relative viability (Serdemetan + Trametinib; first compound 0.4 µM): 0.652
relative viability (Serdemetan + Trametinib; first compound 1.265 µM): 0.621
relative viability (Serdemetan + Trametinib; first compound 4 µM): 0.503
relative viability (Serdemetan + Pictilisib; first compound 0.04 µM): 0.792
relative viability (Serdemetan + Pictilisib; first compound 0.1265 µM): 0.783
relative viability (Serdemetan + Pictilisib; first compound 0.4 µM): 0.662
relative viability (Serdemetan + Pictilisib; first compound 1.265 µM): 0.701
relative viability (Serdemetan + Pictilisib; first compound 4 µM): 0.707
